“Also recorded” adds a separate entry of the source. Where two headings read alike, the source gives them in different places.
What was measured:
[1] = Initial screening of SHG response of powdered samples at 1064 nm; assay type: physicochemical; details: ungraded powder between glass plates, pulsed Nd:YAG laser 1064 nm, green light judged by eye against ungraded urea or ADP
Text: Samples of all of the materials prepared as described above were first subjected to an initial screening with the results shown in Table 1. For this examination ungraded (as to size) powdered samples of each material were sandwiched between two glass plates which were then held in the path of a pulsed Nd:YAG laser operating at 1064 nm. (Model SL804 from Spectron Laser Systems Ltd). The SHG response was judged by viewing the intensity of green light generated (viewed through laser goggles which passed green light but stopped the fundamental 1064 nm radiation). The SHG activity was qualitatively compared to that of a reference sample which was either ungraded urea or ammonium dihydrogen phosphate (ADP).

[2] = judged by eye
Text: The capability for novel materials of the invention to achieve frequency doubling into the blue area of the spectrum was examined. The light source for this investigation was a MOPO (Master Oscillator Power Oscillator) model 730-10 pumped by GCR 270-10 Nd:YAG laser (supplied by Spectra Physics). The incident pulse width output from this laser ranged from 4 ns to 6 ns. Light of a specified wavelength was directed onto a sample sandwiched between two plates in a sample holder. In order to determine the energy which was incident on a sample for each test wavelength, the sample holder was movable in and out of the light beam and an energy meter was located behind the sample position so that the light beam would be directed onto the meter when a sample was not in position. The test wavelengths used were 950 nm, 850 nm, 800 nm and 780 nm. The energy meter was a Scientech AD30 meter employing a calorimetric detector type AC2501H supplied by Scientech.
Samples of the M4, M3 and M35 materials were tested for frequency doubling effect at each of the test wavelengths, the performance of each sample being judged qualitatively by eye by examination of the frequency doubled radiation scattered from the sample. These qualatative assessments were compared with that of a similarly prepared sample of urea having the same particle size as the materials of the invention. […] The M3 and M4 samples were ungraded while the M35 sample was a 212–300 μm graded sample.

[3] = Experimental: (§1) Crystals of M4 have been grown using the equipment described above, both from ethanol and IPA by reduction of temperature of the saturated solutions (12 g of M4 in 820 ml of ethanol) from 40° C. to 25° C. A seed crystal, which had been previously washed with a solvent was suspended from a stirrer and carefully introduced into the saturated solution. […] Several temperature decay rates were tried.
[4] = crystals grown from solution by lowering temperature
Experimental: Crystals of M4, M35 and M3 were grown from solution by lowering the temperature of the saturated solutions. The crystal growth equipment consists of a heated tank of water into which the vessel containing the saturated solution of the material is held. The glass tank is heated through a UV block filter by an infra-red lamp. The temperature is controlled by a mercury contact thermometer. The glass tank is covered by aluminium foil to exclude UV in sunlight from entering the glass tank.
as §1
The solubility of M35 has been determined in isopropyl alcohol/water (10:1 ratio) mixture over a temperature range of 5° C. to 40° C.

[5] = Kurtz and Perry assessment of phase matching properties; assay type: physicochemical; details: graded powders 550 μm to 40 μm, 12 ns pulses at 1064 nm, fixed input pulse energy
Experimental: The phase matching properties of those more promising materials which performed well in the initial screening have been evaluated using the well established Kurtz and Perry technique (J Appl Phys, 1968, 39, 3798). In this method the SHG intensity (λ=532 nm) is measured as a function of the particle size for a fixed input pulse energy. […] The consequence of this is that the harmonic fields can build up in amplitude thus making the material more desirable for SHG applications.
To perform the Kurtz and Perry test powdered samples of the materials were graded using a mechanical shaker set up with a set of standard sieves (550 μm to 40 μm). The graded powders were then mounted in a thin aluminium holder placed between two glass slides. The following criteria was used to ensure the validity of the method: r<L<D where, • r=average particle size • L=thickness of the powdered sample (i.e. thickness of the aluminium spacer) • D=diameter of the laser beam incident on the sample. In the present experiments, there was at least an order of magnitude difference between these parameters.
The same laser as before was used to provide 12 ns FWHM pulses at 1064 nm. […] The magnitude of the SHG signal was measured as the number of counts using an Optical Multichannel Analyser (OMA) with an intensified array. This was preferred to a photomultiplier tube as it enabled the presence of any fluorescence or abnormal spectral emissions from the sample, for example due to damage etc., to be determined.

[6] = Crystal stability on storage; assay type: physicochemical; details: on standing after removal from growing solution or in sealed container
[7] = transmission spectrum
[8] = wavelength 780 nm, energy 16.7 mJ
[9] = wavelength 800 nm, energy 14.8 mJ
[10] = wavelength 850 nm, energy 12.3 mJ

Row | Compound | SHG Response [1] | Frequency doubling compared with urea [2, 8] | Frequency doubling compared with urea [2, 9] | Frequency doubling compared with urea [2, 10] | Frequency doubling compared with urea ([2]; wavelength 950 nm, energy 9 mJ) | SHG activity of grown crystals [4] | Phase matching (SHG signal level at 532 nm as a function of particle size) [5] | further results
1 | thiomorpholinium 3,5-dihydroxybenzoate [TM35] | slightly better than for urea |  |  |  |  |  |  | 
2 | dimorpholinium 2,3,5,6-tetrafluoro-4-hydroxybenzoate [Example M24F4] | weaker than that of urea but better than for ADP |  |  |  |  |  |  | 
3 | Morpholinium 4-hydroxybenzoate [Example M4] | better than for urea | Slightly less | Slightly less | Slightly less | Better | high SHG activity | does not decrease for increasing particle size | Relative solubility ([3]; IPA compared with ethanol): less soluble in IPA; Amount in saturated solution ([3]; in 820 ml of ethanol, saturated solution, 40° C.): 12 g
4 | Morpholinium 3,5-dihydroxybenzoate [Example M35] | slightly better than urea | better | slightly less | same or better | same or better | high SHG activity | does not decrease for increasing particle size | Stability of crystals [6]: stable and do not show any deterioration in quality; Optical transparency limit of single crystal [7]: ≥ 350 mm
5 | Morpholinium 3-hydroxybenzoate [Example M3] | slightly weaker than urea | Less | Much less | Less | Slightly less | exhibit SHG activity | does not decrease for increasing particle size | 
6 | thiomorpholinium 4-hydroxybenzoate [TM4] | slightly better than for ADP |  |  |  |  |  |  | Stability of crystals [6]: unstable, with the crystals becoming opaque over time
7 | Morpholinium 3-fluoro-4-hydroxybenzoate [Example M3F4] | slightly weaker than that of urea |  |  |  |  |  |  | 
8 | N.O=P(O)(O)O [ADP, ammonium dihydrogen phosphate, reference compound] |  |  |  |  |  |  | phase matching materials | 
9 | Morpholinium 4-hydroxycinnamate [Example M4HCA] | greater than that of urea; also recorded: better than urea |  |  |  |  |  |  | 
10 | NC(N)=O [urea, reference compound] |  |  |  |  |  |  | phase matching materials | 

Reference: US7081984B1, “Non-linear optical devices and materials therefor” (Qinetiq Limited, priority 1999, dated 2006)
